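Following 48 hours of exposure in 96-well plates, responses at five concentrations were used to interpolate endpoints linearly. TGI: concentration producing complete growth inhibition.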
Assays:
Experiment in all cases: NCI-60 cell line screen, 48 h
SK-MEL-28 melanoma = system: SK-MEL-28 melanoma
SNB-19 CNS = system: SNB-19 CNS
A498 renal = system: A498 renal
NCI-H23 lung = system: NCI-H23 lung
LOX IMVI melanoma = system: LOX IMVI melanoma
RXF-631 renal = system: RXF-631 renal
IGROV1 ovarian = system: IGROV1 ovarian
RXF 393 renal = system: RXF 393 renal
XF 498 CNS = system: XF 498 CNS
RPMI-8226 leukemia = system: RPMI-8226 leukemia
U251 CNS = system: U251 CNS
ACHN renal = system: ACHN renal
UACC-62 melanoma = system: UACC-62 melanoma
SF-539 CNS = system: SF-539 CNS
COLO 205 colon = system: COLO 205 colon
CCRF-CEM leukemia = system: CCRF-CEM leukemia
KM20L2 colon = system: KM20L2 colon
LXFL 529 NSCLC = system: LXFL 529 NSCLC
HOP-92 NSCLC = system: HOP-92 NSCLC
M19-MEL melanoma = system: M19-MEL melanoma
OVCAR-4 ovarian = system: OVCAR-4 ovarian
SK-OV-3 ovarian = system: SK-OV-3 ovarian
SN12C renal = system: SN12C renal
NCI-H460 lung = system: NCI-H460 lung
HCT-15 colon = system: HCT-15 colon
SNB-78 CNS = system: SNB-78 CNS
HL-60(TB) leukemia = system: HL-60(TB) leukemia
HOP-18 NSCLC = system: HOP-18 NSCLC
K-562 leukemia = system: K-562 leukemia
DMS 114 small cell lung = system: DMS 114 small cell lung
M14 melanoma = system: M14 melanoma
DMS 273 small cell lung = system: DMS 273 small cell lung
MOLT-4 leukemia = system: MOLT-4 leukemia
HT29 colon = system: HT29 colon
SNB-75 CNS = system: SNB-75 CNS
OVCAR-3 ovarian = system: OVCAR-3 ovarian
SK-MEL-5 melanoma = system: SK-MEL-5 melanoma
TK-10 renal = system: TK-10 renal
OVCAR-5 ovarian = system: OVCAR-5 ovarian
SF-295 CNS = system: SF-295 CNS
SR leukemia = system: SR leukemia
HOP-62 NSCLC = system: HOP-62 NSCLC
SF-268 CNS = system: SF-268 CNS
NCI-H522 lung = system: NCI-H522 lung
UO-31 renal = system: UO-31 renal
EKVX NSCLC = system: EKVX NSCLC
SK-MEL-2 melanoma = system: SK-MEL-2 melanoma
DU-145 prostate = system: DU-145 prostate
MDA-N = system: MDA-N
MALME-3M melanoma = system: MALME-3M melanoma
786-0 renal = system: 786-0 renal
NCI/ADR-RES ovarian = system: NCI/ADR-RES ovarian
PC-3 prostate = system: PC-3 prostate
KM12 colon = system: KM12 colon
OVCAR-8 ovarian = system: OVCAR-8 ovarian
NCI-H226 lung = system: NCI-H226 lung
CAKI-1 renal = system: CAKI-1 renal
BT-549 breast = system: BT-549 breast
MDA-MB-435 = system: MDA-MB-435
MDA-MB-231 breast = system: MDA-MB-231 breast
UACC-257 melanoma = system: UACC-257 melanoma
T-47D breast = system: T-47D breast
DLD-1 colon = system: DLD-1 colon
HCC-2998 colon = system: HCC-2998 colon
HS 578T breast = system: HS 578T breast
HCT-116 colon = system: HCT-116 colon
SW-620 colon = system: SW-620 colon
A549 NSCLC = system: A549 NSCLC

SMILES: O=C(O)CCC1CCc2cccc(O)c2C1=O (stereo unspecified)
- TGI (SK-MEL-28 melanoma): > 100 µM
- TGI (SNB-19 CNS): > 100 µM
- TGI (A498 renal): > 100 µM
- TGI (NCI-H23 lung): > 100 µM
- TGI (LOX IMVI melanoma): > 100 µM
- TGI (RXF-631 renal): > 100 µM
- TGI (IGROV1 ovarian): > 100 µM
- TGI (RXF 393 renal): > 100 µM
- TGI (XF 498 CNS): > 100 µM
- TGI (RPMI-8226 leukemia): > 100 µM
- TGI (U251 CNS): > 100 µM
- TGI (ACHN renal): > 100 µM
- TGI (UACC-62 melanoma): > 100 µM
- TGI (SF-539 CNS): > 100 µM
- TGI (COLO 205 colon): > 100 µM
- TGI (CCRF-CEM leukemia): > 100 µM
- TGI (KM20L2 colon): > 100 µM
- TGI (LXFL 529 NSCLC): > 100 µM
- TGI (HOP-92 NSCLC): > 100 µM
- TGI (M19-MEL melanoma): > 100 µM
- TGI (OVCAR-4 ovarian): > 100 µM
- TGI (SK-OV-3 ovarian): > 100 µM
- TGI (SN12C renal): > 100 µM
- TGI (NCI-H460 lung): > 100 µM
- TGI (HCT-15 colon): > 100 µM
- TGI (SNB-78 CNS): > 100 µM
- TGI (HL-60(TB) leukemia): > 100 µM
- TGI (HOP-18 NSCLC): > 100 µM
- TGI (K-562 leukemia): > 100 µM
- TGI (DMS 114 small cell lung): > 100 µM
- TGI (M14 melanoma): > 100 µM
- TGI (DMS 273 small cell lung): > 100 µM
- TGI (MOLT-4 leukemia): > 100 µM

SMILES: CCC(=O)OC[n+]1ccc2c(C)c3[nH]c4ccccc4c3c(C)c2c1
- TGI (HT29 colon): 2.36 µM
- TGI (SNB-75 CNS): 2.55 µM
- TGI (OVCAR-3 ovarian): 2.68 µM
- TGI (RXF-631 renal): 1.91 µM
- TGI (RPMI-8226 leukemia): 2.2 µM
- TGI (ACHN renal): 1.76 µM
- TGI (SK-MEL-5 melanoma): 2.51 µM
- TGI (TK-10 renal): 3.18 µM
- TGI (COLO 205 colon): 1.55 µM
- TGI (OVCAR-5 ovarian): 1.91 µM
- TGI (CCRF-CEM leukemia): 2.68 µM
- TGI (KM20L2 colon): 2.3 µM
- TGI (LXFL 529 NSCLC): 1.78 µM
- TGI (HOP-92 NSCLC): 2.34 µM
- TGI (M19-MEL melanoma): 2 µM
- TGI (SF-295 CNS): 1.88 µM
- TGI (HL-60(TB) leukemia): 6.18 µM
- TGI (HOP-18 NSCLC): 0.701 µM
- TGI (DMS 114 small cell lung): 1.95 µM
- TGI (SR leukemia): 0.553 µM
- TGI (MOLT-4 leukemia): 0.725 µM

SMILES: Cc1n(CC(C)C)c2c([n+]1C)C(=O)c1ccccc1C2=O
- TGI (SK-MEL-28 melanoma): 2.98 µM
- TGI (SNB-19 CNS): 0.647 µM
- TGI (A498 renal): 1.27 µM
- TGI (HT29 colon): 1.03 µM
- TGI (NCI-H23 lung): 0.107 µM
- TGI (SNB-75 CNS): 1.55 µM
- TGI (HOP-62 NSCLC): 0.76 µM
- TGI (LOX IMVI melanoma): 0.867 µM
- TGI (OVCAR-3 ovarian): 0.0961 µM
- TGI (SF-268 CNS): 0.155 µM
- TGI (IGROV1 ovarian): 0.101 µM
- TGI (NCI-H522 lung): 0.0386 µM
- TGI (RXF 393 renal): 6.19 µM
- TGI (UO-31 renal): 3.55 µM
- TGI (EKVX NSCLC): 0.649 µM
- TGI (XF 498 CNS): 1.46 µM
- TGI (SK-MEL-2 melanoma): 0.524 µM
- TGI (RPMI-8226 leukemia): 8.37 µM
- TGI (U251 CNS): 0.499 µM
- TGI (DU-145 prostate): 0.41 µM
- TGI (MDA-N): 0.314 µM
- TGI (ACHN renal): 3.53 µM
- TGI (MALME-3M melanoma): 0.28 µM
- TGI (UACC-62 melanoma): 0.576 µM
- TGI (786-0 renal): 3.41 µM
- TGI (SK-MEL-5 melanoma): 0.139 µM
- TGI (TK-10 renal): 3.38 µM
- TGI (NCI/ADR-RES ovarian): > 100 µM
- TGI (SF-539 CNS): 0.532 µM
- TGI (PC-3 prostate): 0.337 µM
- TGI (KM12 colon): 1.6 µM
- TGI (COLO 205 colon): 0.0575 µM
- TGI (OVCAR-5 ovarian): 0.824 µM
- TGI (OVCAR-8 ovarian): 0.937 µM
- TGI (CCRF-CEM leukemia): 27 µM
- TGI (KM20L2 colon): 1.6 µM
- TGI (NCI-H226 lung): 1.27 µM
- TGI (LXFL 529 NSCLC): 0.508 µM
- TGI (HOP-92 NSCLC): 4.44 µM
- TGI (M19-MEL melanoma): 0.216 µM
- TGI (CAKI-1 renal): > 21.7 µM
- TGI (BT-549 breast): 0.61 µM
- TGI (SF-295 CNS): 1.65 µM
- TGI (OVCAR-4 ovarian): 1.02 µM
- TGI (MDA-MB-435): 0.277 µM
- TGI (SK-OV-3 ovarian): 2.2 µM
- TGI (SN12C renal): 0.0671 µM
- TGI (MDA-MB-231 breast): 0.344 µM
- TGI (UACC-257 melanoma): 0.156 µM
- TGI (NCI-H460 lung): 1.26 µM
- TGI (HCT-15 colon): 4.39 µM
- TGI (T-47D breast): 0.441 µM
- TGI (DLD-1 colon): 0.975 µM
- TGI (SNB-78 CNS): 3.48 µM
- TGI (HL-60(TB) leukemia): 0.437 µM
- TGI (HOP-18 NSCLC): 3.63 µM
- TGI (HCC-2998 colon): 1.53 µM
- TGI (HS 578T breast): 3.05 µM
- TGI (K-562 leukemia): > 100 µM
- TGI (HCT-116 colon): 0.23 µM
- TGI (SW-620 colon): 1.4 µM
- TGI (DMS 114 small cell lung): < 0.0255 µM
- TGI (A549 NSCLC): 1.34 µM
- TGI (M14 melanoma): 1.06 µM
- TGI (DMS 273 small cell lung): 0.786 µM
- TGI (SR leukemia): 11.5 µM
- TGI (MOLT-4 leukemia): 0.955 µM

SMILES: CC(=O)Oc1cc2c(cc1OC(C)=O)C1(C)CCC2(C)c2cc(OC(C)=O)c(OC(C)=O)cc21
- TGI (SK-MEL-28 melanoma): > 100 µM
- TGI (SNB-19 CNS): 22.4 µM
- TGI (HT29 colon): > 100 µM
- TGI (NCI-H23 lung): > 100 µM
- TGI (SNB-75 CNS): 91.7 µM
- TGI (HOP-62 NSCLC): 58.2 µM
- TGI (LOX IMVI melanoma): > 100 µM
- TGI (OVCAR-3 ovarian): 29.7 µM
- TGI (SF-268 CNS): > 100 µM
- TGI (RXF-631 renal): > 100 µM
- TGI (IGROV1 ovarian): 72.3 µM
- TGI (RXF 393 renal): > 100 µM
- TGI (UO-31 renal): 89.1 µM
- TGI (EKVX NSCLC): > 100 µM
- TGI (XF 498 CNS): 29.1 µM
- TGI (SK-MEL-2 melanoma): 66.4 µM
- TGI (RPMI-8226 leukemia): 50.3 µM
- TGI (ACHN renal): > 100 µM
- TGI (MALME-3M melanoma): > 100 µM
- TGI (UACC-62 melanoma): 29.5 µM
- TGI (786-0 renal): > 100 µM
- TGI (SK-MEL-5 melanoma): 54.7 µM
- TGI (TK-10 renal): 76.6 µM
- TGI (KM12 colon): 28.8 µM
- TGI (COLO 205 colon): > 100 µM
- TGI (OVCAR-5 ovarian): 80.9 µM
- TGI (OVCAR-8 ovarian): > 100 µM
- TGI (CCRF-CEM leukemia): 11.4 µM
- TGI (KM20L2 colon): 79.5 µM
- TGI (LXFL 529 NSCLC): 19.6 µM
- TGI (HOP-92 NSCLC): 38.2 µM
- TGI (M19-MEL melanoma): 75.2 µM
- TGI (CAKI-1 renal): 90.5 µM
- TGI (SF-295 CNS): 58.8 µM
- TGI (OVCAR-4 ovarian): 32.1 µM
- TGI (SK-OV-3 ovarian): 72.5 µM
- TGI (SN12C renal): > 100 µM
- TGI (UACC-257 melanoma): 40.4 µM
- TGI (NCI-H460 lung): 50 µM
- TGI (HCT-15 colon): 85.3 µM
- TGI (DLD-1 colon): > 100 µM
- TGI (SNB-78 CNS): > 100 µM
- TGI (HL-60(TB) leukemia): 19.9 µM
- TGI (HCC-2998 colon): 71.9 µM
- TGI (K-562 leukemia): 81.8 µM
- TGI (SW-620 colon): 63.4 µM
- TGI (A549 NSCLC): > 100 µM
- TGI (M14 melanoma): 90.5 µM
- TGI (DMS 273 small cell lung): > 100 µM
- TGI (MOLT-4 leukemia): 96.1 µM

Source: PubChem BioAssay (NCI)
